Reference: patent publication US20060240127A1, “Use of agomelatine in obtaining medicaments intended for the treatment of bipolar disorders” (priority 2005, published 2006)

Test system: patients suffering from bipolar disorders of type I
Assay: Clinical study of agomelatine in type I bipolar patients treated with lithium or valproate
Format: in vivo
Experimental: This study was carried out in 21 patients suffering from bipolar disorders of type I, treated for at least 6 months with lithium (n =14) or valproate (n=7). Treatment for 6 weeks with agomelatine (25 mg/day) was carried out. Of these patients, 19 continued treatment beyond the 6 weeks of acute treatment, and 11 of those continued treatment up to 1 year.

COc1ccc2cccc(CCNC(C)=O)c2c1 [agomelatine, N-[2-(7-methoxy-1-naphthyl)ethyl]acetamide]
patients in remission at the end of the one year treatment period (11 patients who continued treatment up to 1 year, agomelatine 25 mg/day with lithium or valproate): 10 out of the 11
manic or hypomanic episodes observed after the 6 weeks of treatment (19 patients who continued beyond 6 weeks, 11 of them up to 1 year, level compatible with a mood stabiliser): three
patients responded positively to the treatment (21 type I bipolar patients on lithium or valproate, agomelatine 25 mg/day, 6 weeks treatment): 81%
patients responded positively by the end of one week of treatment (21 type I bipolar patients on lithium or valproate, agomelatine 25 mg/day, end of one week): about 50%
